Results on 1 compound are retold here after US20080206334A1 (priority 2005, published 2008).

Data set [1] in a line: Excipient compatibility by DSC. The format is physicochemical. Particulars: 1:1 (w/w) mixtures with xanthan gum, chitosan, magnesium stearate, NaHCO3. How it is done:
Samples of 5-10 mg in weight were placed in hermetically sealed DSC pans. Samples were scanned at a rate of 10° C./min, and thermograms were obtained. The thermal analyzer (DSC) was calibrated prior to use by indium. The calibration procedure was repeated many times prior to DSC runs.

The conditions of data set [2]: cited from earlier work.
For data set [3] the following is noted: administered orally; cited from earlier work.

Counter-ions that a name gives are not always drawn.

For `CC(C)(C)NCC(O)c1cc(O)cc(O)c1` (stereo not drawn) [Terbutaline sulfate], the “Excipient compatibility (DSC thermograms)” value in data set [1] is on record as “excipients are compatible with Terbutaline sulfate”. Moreover, in data set [2], the Solubility in water is more than 20 mg/mL. Also, in data set [3], the Biological half-life entry is “about 3.6 hrs”.
